The values below come from US5229412A, “Method for relieving anxiety using 5-hydroxytryptamine-1A-receptor-binding compounds” (The Board of Trustees of the Leland Stanford Junior …, priority 1988, dated 1993).

One data set deals with β-adrenergic receptors. In words: Radioligand binding, β-adrenergic receptors labeled by ^3 H-dihydroalprenolol (^3 H-DHA), rat cortex. To be noted: for potency at β-adrenergic receptors relative to 5-HT1A (in words): labeled by ^3 H-DHA; for IC50: mean ± standard error of 3-4 experiments, read-out: Drug Potency (IC50) β-adrenergic (^3 H-DHA). How it is done: (§1) Radioligand binding studies were performed described in Peroutka et al., Molecular Pharmacology (1979) 16:687-699. Briefly, rat brain were purchased from Pel-Freez (Roger, AR). On the day of study, the samples were thawed in Tris-HCl buffer. Tissues were homogenized in 20 volumes Tris-HCl buffer (pH 7.7 at 25° C.) using a Brinkmann Polytron and then centrifuged in an IEC B20A centrifuge at 49,000×g for 10 min. The supernatant was discarded, and the pellet was resuspended in the same volume of Tris-HCl buffer and incubated at 37° C. for 10 min prior to a second centrifugation at 49,000×g for 10 min. The final pellet was resuspended in 80 volumes of Tris-HCl buffer containing 10 μM pargyline, 4 mM calcium chloride and 0.1% ascorbic acid. The suspensions were immediately used in the binding assay. […] Following incubation at 25° C. for 30 minutes, the assays were rapidly filtered under vacuum through #32 glass filters (Schleicher and Scheull: Keene, NH) with two 5 ml washes using 50 mM Tris-HCl buffer. Radioactivity was measured by liquid scintillation spectroscopy in ml of 3a70 Counting Cocktail (Research Products International: Mt. Prospect, IL) at 54% efficiency. […] All drugs were diluted and dissolved in assay buffer.
(§2) Each experiment was performed in triplicate and repeated 3 to 6 times.

A further data set concerns the target T1, 5-HT2 (Rattus norvegicus, UniProt P14842).
T1 construct: rat brain were purchased from Pel-Freez; tissue Pel-Freez (Roger, AR); host or cells: rat brain (cortex) membranes
The data set can be described thus: Radioligand binding, 5-HT2 sites labeled by ^3 H-spiperone, rat cortex. To be noted: for IC50: mean ± standard error of 3-4 experiments. As to the method:
as §1, §2

A short description of data set [1]: Stability of Compounds 8-11 on storage. It is filed as physicochemical. To be noted: methanol; 10 mg/ml, 20° C., 'too months'; read-out: decomposition in methanolic solution. How it is done:
Methanolic solutions (10 mg/ml) are suitable storage forms.

The next data set relates to non-5-HT1A. In words: Radioligand binding, non-5-HT1A sites labeled by ^3 H-5-HT + 100 nM 8-OH-DPAT, rat cortex. To be noted: for potency at non-5-HT1A binding sites (in words) / IC50: rat cortex; for IC50: read-out: Drug Potency (IC50) non-5-HT1A (^3 H-5-HT + 100 nM 8-OH-DPAT), mean ± standard error of 3-4 experiments. How it is done:
as §1, with “Briefly,” for “Radioligand binding studies were performed described in Peroutka et al., Molecular Pharmacology (1979) 16:687-699. Briefly,”, “buffer.” for “buffer. Radioactivity was measured by liquid scintillation spectroscopy in ml of 3a70 Counting Cocktail (Research Products International: Mt. Prospect, IL) at 54% efficiency.”
as §2

In a further data set the target is T2, 5-HT1A (Rattus norvegicus, UniProt P19327).
T2 construct: rat brain were purchased from Pel-Freez; tissue Pel-Freez (Roger, AR); host or cells: rat brain (cortex) membranes
T2 sequence (P19327 1-422): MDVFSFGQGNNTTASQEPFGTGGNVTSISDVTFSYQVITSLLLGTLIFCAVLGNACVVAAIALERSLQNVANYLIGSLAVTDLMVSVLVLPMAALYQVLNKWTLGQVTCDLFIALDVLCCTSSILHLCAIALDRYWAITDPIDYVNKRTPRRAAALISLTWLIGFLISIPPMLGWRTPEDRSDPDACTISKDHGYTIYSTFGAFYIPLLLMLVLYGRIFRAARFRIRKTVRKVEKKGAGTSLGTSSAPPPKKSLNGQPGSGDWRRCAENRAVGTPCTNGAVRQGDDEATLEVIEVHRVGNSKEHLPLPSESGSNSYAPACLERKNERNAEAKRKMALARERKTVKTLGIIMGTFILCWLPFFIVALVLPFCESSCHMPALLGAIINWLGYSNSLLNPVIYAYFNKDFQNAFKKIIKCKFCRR
The data set can be described thus: Radioligand binding, 5-HT1A sites labeled by ^3 H-8-OH-DPAT, rat cortex. To be noted: for IC50: mean ± standard error of 3-4 experiments. As to the method:
as §1, §2

The next data set deals with 5-HT1A receptors. To be noted: background statement; cited from earlier work.

Usually IC50 stands for the midpoint of a concentration-inhibition curve. For orientation: Kd means a measure of binding affinity in units of concentration.

T1 sequence (P14842 whole entry): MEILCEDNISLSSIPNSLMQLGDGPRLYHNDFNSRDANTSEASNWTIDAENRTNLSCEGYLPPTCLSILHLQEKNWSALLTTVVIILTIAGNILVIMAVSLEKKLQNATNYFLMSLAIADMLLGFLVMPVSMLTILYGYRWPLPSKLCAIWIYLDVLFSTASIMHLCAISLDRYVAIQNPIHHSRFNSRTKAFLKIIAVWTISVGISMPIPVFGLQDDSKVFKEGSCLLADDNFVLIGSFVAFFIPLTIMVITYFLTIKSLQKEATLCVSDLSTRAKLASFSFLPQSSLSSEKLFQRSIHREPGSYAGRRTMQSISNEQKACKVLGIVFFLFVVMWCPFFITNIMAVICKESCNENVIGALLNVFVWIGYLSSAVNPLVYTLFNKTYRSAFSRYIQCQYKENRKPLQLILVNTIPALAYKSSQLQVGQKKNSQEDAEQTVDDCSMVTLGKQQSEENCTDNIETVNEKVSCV

As for `CC(C)(NCC(O)COc1cccc2[nH]ccc12)[C@H]1CC[C@@](C)(NC(=O)CBr)CC1` (some centres unmarked) [Compound 9, N^1 (Bromoacetyl)-N^8-[3-(4-indolyloxy)-2-hydroxypropyl]-(Z)-1,8-diamino-p-menthane], in the data set on β-adrenergic receptors, the “potency at β-adrenergic receptors relative to 5-HT1A (in words)” value is recorded as “approximately an order of magnitude less potent” and the IC50 came to 5.6 ± 0.5 nM. In addition, on 5-HT2, the “potency at 5-HT2 binding sites (in words)” value is “approximately less potent” and the IC50 stood at 4000 ± 500 nM. In data set [1], the degraded at 1460 h was less than 5%. Also, in the data set with non-5-HT1A, the “potency at non-5-HT1A binding sites (in words)” value is given as “approximately less potent” and the IC50 was 430 ± 200 nM. For the same compound, at 5-HT1A, the “potency at the 5-HT1A binding site (in words)” value was “extremely potent” and the IC50 turned out to be 0.71 ± 0.02 nM.
For `COC(=O)/C=C/C(=O)N[C@]1(C)CC[C@H](C(C)(C)NCC(O)COc2cccc3[nH]ccc23)CC1` (some centres unmarked) [Compound 13], in the data set on β-adrenergic receptors, the “potency at β-adrenergic receptors relative to 5-HT1A (in words)” value is recorded as “approximately an order of magnitude less potent” and the IC50 was 10 ± 5 nM. On 5-HT2, the “potency at 5-HT2 binding sites (in words)” value was “approximately less potent” and the IC50 was found to be 3600 ± 1000 nM. Further, in the data set with non-5-HT1A, the “potency at non-5-HT1A binding sites (in words)” value is reported as “approximately less potent” and the IC50 came out at 2900 ± 800 nM. Further, at 5-HT1A, the “potency at the 5-HT1A binding site (in words)” value is reported as “extremely potent” and the 50% inhibitory concentration (IC50) was determined as 1.2 ± 0.2 nM.
For the compound `CC(C)(NC(=O)C1=CC2C=CC1CC2)[C@H]1CC[C@@](C)(NCC(O)COc2cccc3[nH]ccc23)CC1` (some centres unmarked) [Compound 14], in the data set on β-adrenergic receptors, the “selectivity for β-adrenergic receptors (in words)” value is on record as “most selective for β-adrenergic receptors” and the half-maximal inhibitory concentration (IC50) came to 4.2 ± 2 nM. Further, on 5-HT2, the “potency at 5-HT2 binding sites (in words)” value is “least potent”. In the data set with non-5-HT1A, the “potency at non-5-HT1A binding sites (in words)” value is given as “least potent” and the half-inhibitory concentration (IC50) amounted to 46 ± 10 nM. In addition, on 5-HT1A, the “potency at the 5-HT1A binding site (in words)” value is on record as “similar, though less potent, affinity” and the half-inhibitory concentration (IC50) was 26 ± 8 nM.
In the case of `CC(C)(NCC(O)COc1cccc2[nH]c(C#N)cc12)[C@H]1CC[C@@](C)(NC(=O)CBr)CC1` (some centres unmarked) [Compound 11], on β-adrenergic receptors, the IC50 was found to be 1.1 ± 0.02 nM. At 5-HT2, the “potency at 5-HT2 binding sites (in words)” value is “least potent” and the IC50 turned out to be 4400 ± 2000 nM. Further, the degraded at 1460 h in data set [1] is less than 5%. In the data set with non-5-HT1A, the “potency at non-5-HT1A binding sites (in words)” value is reported as “least potent” and the IC50 was determined as 410 ± 200 nM. At 5-HT1A, the “potency at the 5-HT1A binding site (in words)” value is “similar, though less potent, affinity” and the IC50 worked out at 5.3 ± 2 nM.
Turning to `CC(C)(NC(=O)CBr)[C@H]1CC[C@@](C)(NCC(O)COc2cccc3[nH]c(C#N)cc23)CC1` (some centres unmarked) [Compound 10, N^8-(Bromoacetyl)-N1-[3-[(2-cyano-4-indolyl)oxy]-2-hydroxYpropyl]-(Z)-1,8-diamino-p-menthane], in data set [1], the degraded at 1460 h was less than 5%.
Regarding `O=C1c2ccccc2S(=O)(=O)N1CCCCN1CCN(c2ncccn2)CC1` [TVX Q 7821], in the data set on 5-HT1A receptors, the “inhibition of [^3 H]-8-OH-DPAT binding to 5-HT1A receptors (in words)” value (from here on “inhibition of [^3 H]-8-OH-DPAT binding”) is listed as “potent inhibitors”.
As to `CC(C)NC[C@H](O)COc1cccc2ccccc12` [(-)-propranolol], the “inhibition of [^3 H]-8-OH-DPAT binding” value in the data set with 5-HT1A receptors is reported as “potent inhibitors”.
In the case of `CN1CCC(=C2c3ccccc3C=Cc3ccccc32)CC1` [cyproheptadine], the “inhibition of [^3 H]-8-OH-DPAT binding” value in the data set with 5-HT1A receptors was “potent inhibitors”.
Regarding `NCCc1c[nH]c2ccc(O)cc12` [^3 H-5-HT, 5-Hydroxytryptamine], on non-5-HT1A (used for Ki calculation), the dissociation constant (Kd) is 3.2 nM.
Regarding `CN1CCC(=C2c3ccccc3CCc3sccc32)CC1` [pizotifen], the “inhibition of [^3 H]-8-OH-DPAT binding” value with 5-HT1A receptors was “potent inhibitors”.
For `O=C1CC2(CCCC2)CC(=O)N1CCCCN1CCN(c2ncccn2)CC1` [Buspirone], the “inhibition of [^3 H]-8-OH-DPAT binding” value in the data set on 5-HT1A receptors was “potent inhibitors”.
Take `CC(C)(NC(=O)CBr)[C@H]1CC[C@@](C)(NCC(O)COc2cccc3[nH]ccc23)CC1` (some centres unmarked) [Compound 8, N^8-(Bromoacetyl)-N^1-[3-(4-indolyloxy)-2-hydroxypropyl]-(Z)-1,8-diamino-p-menthane]: the IC50 on β-adrenergic receptors came to 1.3 ± 0.2 nM; at 5-HT2, 3100 ± 1000 nM; at non-5-HT1A, 140 ± 70 nM; on 5-HT1A it was 6.3 ± 2 nM. Besides, the “potency at 5-HT2 binding sites (in words)” value at 5-HT2 was “least potent”. In addition, the degraded at 1460 h in data set [1] was less than 5%. Moreover, the “potency at non-5-HT1A binding sites (in words)” value with non-5-HT1A is “least potent”. Also, the “potency at the 5-HT1A binding site (in words)” value at 5-HT1A is on record as “similar, though less potent, affinity”.
Regarding `COC(=O)/C=C/C(=O)NC(C)(C)[C@H]1CC[C@@](C)(NCC(O)COc2cccc3[nH]ccc23)CC1` (some centres unmarked) [Compound 12], in the data set on β-adrenergic receptors, the “selectivity for β-adrenergic receptors (in words)” value is “most selective for β-adrenergic receptors” and the IC50 is 2.8 ± 0.5 nM. Moreover, on 5-HT2, the “potency at 5-HT2 binding sites (in words)” value is “least potent” and the IC50 came to 1100 ± 500 nM. In the data set on non-5-HT1A, the “potency at non-5-HT1A binding sites (in words)” value is listed as “least potent” and the IC50 worked out at 270 ± 50 nM. Besides, on 5-HT1A, the “potency at the 5-HT1A binding site (in words)” value is recorded as “similar, though less potent, affinity” and the IC50 worked out at 31 ± 8 nM.
With `CC(C)(NCC(O)COc1cccc2[nH]ccc12)[C@H]1CC[C@@](C)(NC(=O)C2=CC3C=CC2CC3)CC1` (some centres unmarked) [Compound 15], in the data set on β-adrenergic receptors, the “potency at β-adrenergic receptors relative to 5-HT1A (in words)” value is given as “approximately an order of magnitude less potent” and the IC50 stood at 19 ± 9 nM. In addition, on 5-HT2, the “potency at 5-HT2 binding sites (in words)” value is on record as “approximately less potent”. Further, in the data set with non-5-HT1A, the “potency at non-5-HT1A binding sites (in words)” value is on record as “approximately less potent” and the IC50 is 1300 ± 500 nM. On 5-HT1A, the “potency at the 5-HT1A binding site (in words)” value is reported as “extremely potent” and the IC50 was 1.1 ± 0.1 nM.
